# Experimental data: patent US8598084B2, “Synergistic herbicide/insecticide composition containing certain pyridine carboxylic acids and certain insecticides” (priority 2010, dated 2013)
# Key:
# Assay type in all cases: in vivo
# [1] = system: bird's-eye speedwell (Veronica persica L; VERPE); experiment: Postemergence herbicidal activity of mixtures, greenhouse, visual injury vs control; details: for pest or weed control at 1.25 g/ha: 1.25 g/ha alone;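 as to all read-outs here: visual score 0 means no injury and 100 means complete kill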
# Protocol: (§1) Evaluation of Postemergence Herbicidal Activity of Mixtures in Cereal Crops
# (§2) Seeds of the desired test plant species were planted in Sun Gro MetroMix® 306 planting mixture, which typically has a pH of 6.0 to 6.8 and an organic matter content of about 30 percent, in plastic pots with a surface area of 103.2 square centimeters (cm^2). When required to ensure good germination and healthy plants, a fungicide treatment and/or other chemical or physical treatment was applied. The plants were grown for 7-36 days (d) in a greenhouse with an approximate 14 hour (h) photoperiod which was maintained at about 18° C. during the day and 17° C. during the night. Nutrients and water were added on a regular basis and supplemental lighting was provided with overhead metal halide 1000-Watt lamps as necessary. The plants were employed for testing when they reached the second or third true leaf stage.
# (§3) Treatments consisted of an insecticidal compound (as listed in Tables 1 through 18) and the cereal herbicide, 4-amino-3-chloro-6-(4-chloro-2-fluoro-3-methoxyphenyl)pyridine-2-carboxylic acid, alone and in combination. Weighed amounts of esters (methyl) or salts (triethylammonium, TEA) of 4-amino-3-chloro-6-(4-chloro-2-fluoro-3-methoxyphenyl)pyridine-2-carboxylic acid (Compound I) were placed in 25 milliliter (mL) glass vials and dissolved in a volume of 97:3 volume per volume (v/v) acetone/dimethyl sulfoxide (DMSO) to obtain 4.5 milligrams active ingredient per mL (mg ai/mL) concentrated solutions. […] The concentrated solutions of Compound I were diluted to 1.5 mg ai/mL with the addition of 2 volumes of an aqueous mixture containing acetone, water, isopropyl alcohol, DMSO, Agri-dex crop oil concentrate, and Triton® X-77 surfactant in a 64.7:26.0:6.7:2.0:0.7:0.01 v/v ratio. A dilution solution was prepared by mixing 1 volume of 97:3 v/v acetone/DMSO and 2 volumes of an aqueous mixture containing acetone, water, isopropyl alcohol, DMSO, Agri-dex crop oil concentrate, and Triton® X-77 surfactant in a 64.7:26.0:6.7:2.0:0.7:0.01 v/v ratio. Compound requirements are based upon a 12 mL application volume at a rate of 187 liters per hectare (L/ha). The concentrated solutions of the cereal insecticides were prepared following the same procedure. Weighed amounts of insecticide were placed in 25 milliliter (mL) glass vials and dissolved in a volume of 97:3 v/v acetone/DMSO to obtain concentrated insecticide solutions. The concentrated solutions of the safener were prepared following the same procedure. Weighed amounts of safener were placed in 25 mL glass vials and dissolved in a volume of 97:3 v/v acetone/DMSO to obtain concentrated safener solutions. The concentrated solutions were diluted to 0.75 mg/mL with an aqueous mixture of 1.5% v/v of Agri-dex crop oil concentrate.
# (§4) Spray solutions of the cereal herbicide and the insecticidal compound mixtures were prepared by adding the concentrated solutions to the appropriate amount of dilution solution to form 12 mL spray solution with active ingredients in combinations. Spray solutions of the cereal herbicide, herbicide safener and the insecticidal compound mixtures were prepared by adding the concentrated solutions to the appropriate amount of dilution solution to form 12 mL spray solution with active ingredients in combinations. Formulated compounds were applied to the plant material with an overhead Mandel track sprayer equipped with 8002E nozzles calibrated to deliver 187 L/ha over an application area of 0.503 square meters (m^2) at a spray height of 18 inches […] above average plant canopy. Control plants were sprayed in the same manner with the solvent blank.
# (§5) The treated plants and control plants were placed in a greenhouse as described above and watered by sub-irrigation to prevent wash-off of the test compounds. […]
# [2] = system: scented mayweed (Matricaria chamomila L; MATCH); experiment: as above
# Protocol: as §1, §2, §3, §4, §5
# [3] = system: Russian thistle (Salsola iberica L; SASKR); experiment: as above; details: for pest or weed control at 1.25 g/ha: 1.25 g/ha alone
# Protocol: as §1, §2, §3, §4, §5
# [4] = system: wild pansy (Viola tricolor L; VIOTR); experiment: as above; details: for pest or weed control at 1.25 g/ha: 1.25 g/ha alone
# Protocol: as §1, §2, §3, §4, §5
# [5] = system: kochia (Kochia scoparia L; KCHSC); experiment: as above
# Protocol: as §1, §2, §3, §4, §5
# [6] = system: Canada thistle (Cirsium arvense L; CIRAR); experiment: as above; details: 48 g/ha alone
# Protocol: as §1, §2, §3, §4, §5
# [7] = system: redroot pigweed (Amaranthus retroflexus L; AMARE); experiment: as above; details: 48 g/ha alone
# Protocol: as §1, §2, §3, §4, §5
# [8] = system: wheat (Triticum aestivum L; TRZAS); experiment: Postemergence crop injury and safening, greenhouse, visual injury vs control; details: crop injury
# Protocol: as §1, §2, §3, §4, §5
# [9] = system: barley (Hordeum vulgare L; HORVS); experiment: as above; details: crop injury
# Protocol: as §1, §2, §3, §4, §5
# [10] = Veronica persica, post-emergence, read-out: Ob (observed injury)
# [11] = Salsola tragus, post-emergence, read-out: Ob (observed injury)
# [12] = Viola tricolor, post-emergence, read-out: Ob (observed injury)
# [13] = Veronica persica, post-emergence, 35 g/ha alone, read-out: Ob (observed injury)
# [14] = Salsola tragus, post-emergence, 35 g/ha alone, read-out: Ob (observed injury)
# [15] = Bassia scoparia, post-emergence, 35 g/ha alone, read-out: Ob (observed injury)
# [16] = Viola tricolor, post-emergence, 35 g/ha alone, read-out: Ob (observed injury)
smiles,measurement,setting,value
"Cc1c(COC(=O)[C@@H]2[C@H](/C=C(\Cl)C(F)(F)F)C2(C)C)cccc1-c1ccccc1 (relative stereo) [Bifenthrin, (2-methyl[1,1′-biphenyl]-3-yl)methyl (1R,3R)-rel-3-[(1Z)-2-chloro-3,3,3-trifluoro-1-propenyl]-2,2-dimethylcyclopropanecarboxylate, reference compound]",pest or weed control at 1.6 g/ha,"[1]; Veronica persica, post-emergence, 1.6 g/ha alone, read-out: Ob (observed injury)",0%
same,pest or weed control at 1.6 g/ha,"[2]; Matricaria, post-emergence, 1.6 g/ha alone, read-out: Ob (observed injury)",0%
same,pest or weed control at 1.6 g/ha,"[3]; Salsola tragus, post-emergence, 1.6 g/ha alone, read-out: Ob (observed injury)",0%
same,pest or weed control at 1.6 g/ha,"[4]; Viola tricolor, post-emergence, 1.6 g/ha alone, read-out: Ob (observed injury)",0%
"CC1(C)C(C=C(Cl)Cl)C1C(=O)OC(C#N)c1ccc(F)c(Oc2ccccc2)c1 (stereo not drawn) [Cyfluthrin, cyano(4-fluoro-3-phenoxyphenyl)methyl 3-(2,2-dichloroethenyl)-2,2-dimethylcyclopropanecarboxylate, reference compound]",pest or weed control at 3.75 g/ha,"[2]; Matricaria, post-emergence, 3.75 g/ha alone, read-out: Ob (observed injury)",0%
same,pest or weed control at 3.75 g/ha,"[3]; Salsola tragus, post-emergence, 3.75 g/ha alone, read-out: Ob (observed injury)",0%
same,pest or weed control at 3.75 g/ha,"[5]; Bassia scoparia, post-emergence, 3.75 g/ha alone, read-out: Ob (observed injury)",0%
same,pest or weed control at 3.75 g/ha,"[4]; Viola tricolor, post-emergence, 3.75 g/ha alone, read-out: Ob (observed injury)",0%
"CC1(C)[C@H](/C=C(\Cl)C(F)(F)F)[C@@H]1C(=O)O[C@@H](C#N)c1cccc(Oc2ccccc2)c1 (relative stereo) [λ-Cyhalothrin, (R)-cyano(3-phenoxyphenyl)methyl (1S,3S)-rel-3-[(1Z)-2-chloro-3,3,3-trifluoro-1-propenyl]-2,2-dimethylcyclopropanecarboxylate]",pest or weed control at 1.25 g/ha,[1]; [10],0%
same,pest or weed control at 1.25 g/ha,[3]; [11],0%
same,pest or weed control at 1.25 g/ha,[4]; [12],0%
"CNC(=O)CSP(=S)(OC)OC [Dimethoate, O,O-dimethyl S-[2-(methylamino)-2-oxoethyl]phosphorodithioate, reference compound]",pest or weed control at 170 g/ha,"[1]; Veronica persica, post-emergence, 170 g/ha alone, read-out: Ob (observed injury)",0%
same,pest or weed control at 170 g/ha,"[3]; Salsola tragus, post-emergence, 170 g/ha alone, read-out: Ob (observed injury)",0%
same,pest or weed control at 170 g/ha,"[5]; Bassia scoparia, post-emergence, 170 g/ha alone, read-out: Ob (observed injury)",0%
same,pest or weed control at 170 g/ha,"[4]; Viola tricolor, post-emergence, 170 g/ha alone, read-out: Ob (observed injury)",0%
"Cc1nc(N(C)C)nc(OC(=O)N(C)C)c1C [Pirimicarb, 2-(dimethylamino)-5,6-dimethyl-4-pyrimidinyl dimethylcarbamate, reference compound]",pest or weed control at 35 g/ha,[1]; [13],0%
same,pest or weed control at 35 g/ha,"[2]; Matricaria, post-emergence, 35 g/ha alone, read-out: Ob (observed injury)",0%
same,pest or weed control at 35 g/ha,[3]; [14],0%
same,pest or weed control at 35 g/ha,[5]; [15],0%
same,pest or weed control at 35 g/ha,[4]; [16],0%
"CC(C)[C@@H](Nc1ccc(C(F)(F)F)cc1Cl)C(=O)OC(C#N)c1cccc(Oc2ccccc2)c1 (stereo partly drawn) [Tau-fluvalinate, cyano(3-phenoxyphenyl)methyl N-[2-chloro-4-(trifluoromethyl)phenyl]-D-valinate, reference compound]",Ob (observed injury),[6],0%
same,Ob (observed injury),[7],0%
same,pest or weed control at 48 g/ha,"[4]; Viola tricolor, post-emergence, 48 g/ha alone, read-out: Ob (observed injury)",0%
CCN(CC)CC.COc1c(Cl)ccc(-c2cc(N)c(Cl)c(C(=O)O)n2)c1F [Compound I TEA salt],Ob (observed injury),[1]; 8.75 g/ha alone,10%
same,Ob (observed injury),[1]; 17.5 g/ha alone,40%
same,Ob (observed injury),[1]; 35 g/ha alone,70%
same,Ob (observed injury),[2]; 8.75 g/ha alone,40%
same,Ob (observed injury),[2]; 17.5 g/ha alone,67%
same,Ob (observed injury),[2]; 35 g/ha alone,73%
same,Ob (observed injury),[3]; 8.75 g/ha alone,80%
same,Ob (observed injury),[3]; 17.5 g/ha alone,84%
same,Ob (observed injury),[3]; 35 g/ha alone,86%
same,Ob (observed injury),[5]; 8.75 g/ha alone,40%
same,Ob (observed injury),[5]; 17.5 g/ha alone,55%
same,Ob (observed injury),[5]; 35 g/ha alone,65%
same,Ob (observed injury),[4]; 8.75 g/ha alone,23%
same,Ob (observed injury),[4]; 17.5 g/ha alone,40%
same,Ob (observed injury),[4]; 35 g/ha alone,47%
"COc1c(Cl)ccc(-c2cc(N)c(Cl)c(C(=O)O)n2)c1F [Compound I Acid, 4-Amino-3-chloro-6-(4-chloro-2-fluoro-3-methoxyphenyl)pyridine-2-carboxylic acid]",pest or weed control at 35 g/ha,[1]; [13],72%
same,pest or weed control at 35 g/ha,[3]; [14],89%
same,pest or weed control at 35 g/ha,[5]; [15],98%
same,pest or weed control at 35 g/ha,[4]; [16],60%
same,Ob (observed injury),[8]; 35 g/ha alone,22%
same,Ob (observed injury),[9]; 35 g/ha alone,15%
"CC1(C)[C@H](C(=O)O[C@H](C#N)c2cccc(Oc3ccccc3)c2)[C@@H]1C=C(Br)Br [Deltamethrin, (S)-cyano(3-phenoxyphenyl)methyl (1R,3R)-3-(2,2-dibromoethenyl)-2,2-dimethylcyclopropanecarboxylate, reference compound]",pest or weed control at 1.25 g/ha,[1]; [10],0%
same,pest or weed control at 1.25 g/ha,"[2]; Matricaria, post-emergence, 1.25 g/ha alone, read-out: Ob (observed injury)",0%
same,pest or weed control at 1.25 g/ha,[3]; [11],0%
same,pest or weed control at 1.25 g/ha,"[5]; Bassia scoparia, post-emergence, 1.25 g/ha alone, read-out: Ob (observed injury)",0%
same,pest or weed control at 1.25 g/ha,[4]; [12],0%
"CCOC(=O)CC(SP(=S)(OC)OC)C(=O)OCC (stereo not drawn) [Malathion, diethyl[(dimethoxythiophosphinothioyl)thio]butanedioate, reference compound]",pest or weed control at 280 g/ha,"[2]; Matricaria, post-emergence, 280 g/ha alone, read-out: Ob (observed injury)",0%
same,pest or weed control at 280 g/ha,"[3]; Salsola tragus, post-emergence, 280 g/ha alone, read-out: Ob (observed injury)",0%
same,pest or weed control at 280 g/ha,"[5]; Bassia scoparia, post-emergence, 280 g/ha alone, read-out: Ob (observed injury)",0%
same,pest or weed control at 280 g/ha,"[4]; Viola tricolor, post-emergence, 280 g/ha alone, read-out: Ob (observed injury)",0%
same,pest or weed control at 1120 g/ha,"[4]; Viola tricolor, post-emergence, 1120 g/ha alone, read-out: Ob (observed injury)",0%
same,Ob (observed injury),[8]; 280 g/ha alone,0%
same,Ob (observed injury),[8]; 1120 g/ha alone,0%
same,Ob (observed injury),[9]; 280 g/ha alone,0%
same,Ob (observed injury),[9]; 1120 g/ha alone,0%
"N#CCNC(=O)c1cnccc1C(F)(F)F [Flonicamid, N-(cyanomethyl)-4-(trifluoromethyl)-3-pyridinecarboxamide]",pest or weed control at 17.5 g/ha,"[2]; Matricaria, post-emergence, 17.5 g/ha alone, read-out: Ob (observed injury)",0%
same,pest or weed control at 17.5 g/ha,"[3]; Salsola tragus, post-emergence, 17.5 g/ha alone, read-out: Ob (observed injury)",0%
same,pest or weed control at 17.5 g/ha,"[4]; Viola tricolor, post-emergence, 17.5 g/ha alone, read-out: Ob (observed injury)",0%
"CCOP(=S)(OCC)Oc1nc(Cl)c(Cl)cc1Cl [Chlorpyrifos, O,O-diethyl O-(3,5,6-trichloro-2-pyridinyl) phosphorothioate, reference compound]",pest or weed control at 60 g/ha,"[1]; Veronica persica, post-emergence, 60 g/ha alone, read-out: Ob (observed injury)",0%
same,pest or weed control at 60 g/ha,"[2]; Matricaria, post-emergence, 60 g/ha alone, read-out: Ob (observed injury)",0%
same,pest or weed control at 60 g/ha,"[3]; Salsola tragus, post-emergence, 60 g/ha alone, read-out: Ob (observed injury)",0%
same,pest or weed control at 60 g/ha,"[5]; Bassia scoparia, post-emergence, 60 g/ha alone, read-out: Ob (observed injury)",0%
same,pest or weed control at 60 g/ha,"[4]; Viola tricolor, post-emergence, 60 g/ha alone, read-out: Ob (observed injury)",0%
